# Test results reported in US20200316156A1, “NASAL BALM FOR RELIEVING ALLERGIC RHINITIS SYMPTOMS” (priority 2019, published 2020).
# Values joined by “and” are separate entries in the source; they are usually repeats but may differ in a detail not shown here. Equal values may be shown once. Where a name gives a salt, the structure may show the parent alone.
# Test system: allergic rhinitis of BALB/c mice
# Assay: OVA-induced allergic rhinitis in BALB/c mice, sneeze number
# Type: in vivo
# Conditions: for Sneeze number, individual mouse: within 15 min after administration, mice No. 1-4, hydrochloride
# Experimental: 1. Experimental objective: to study the effect of the nasal balm of the disclosure on the allergic rhinitis of BALB/c mice.
# 2 mg of OVA powder was weighed, dissolved with physiologic saline solution. The final volume was calibrated accurately to 14 mL. 3.5 mL of the OVA solution was pipetted into a 5 mL Eppendorf tube, followed by the addition of 0.5 mL of uniform aluminum hydroxide gel, and then the OVA solution was dropwise added. The mixture was shaken for 30 min, and then 0.2 mL of the resulting solution was injected to each mouse to induce the sensitization.
# 2 mg of OVA powder was weighed, dissolved with physiologic saline solution. The final volume was calibrated accurately to 14 mL.
# The mice were quarantined, adaptively fed, and divided into four groups: normal group, model group, positive control group and test group. Each group had 4 mice labeled as No. 1, No. 2, No. 3 and No. 4, respectively. The rest two mice were as backup.
# The model group, positive control group and test group were administered with OVA solution through abdominal cavity to induce sensitization. Each mouse was administered with 0.2 mL of OVA solution containing 25 μg of OVA and 1 mg of aluminum hydroxide. Normal group as a control was injected with physiological saline solution at a dosage of 0.2 mL per mouse, where the first injection was labeled as D0, and the second injection and the third injection were performed on D7 and D14, respectively.
# After induction, the drugs were administrated to initiate sensitization. The test product was smeared on the noses of the mice in normal group 6 times each day. After application of the test product each day, 20 μL of physiological saline solution was dripped into the nasal cavity of the mice in normal group as a control, at a dosage of 10 μL per nostril. The physiological saline solution was smeared on the nose of the mice in model group 6 times each day. 5 μL of Levocabastine was dripped into the nasal cavity of the mice in positive control group 2 times each day, at a dosage of 2.5 μL per nostril. The test product was smeared on the noses of the mice in test group 6 times each day. After administration of the drugs each day, 20 μL of the OVA solution for sensitization was dripped into the nasal cavity of the mice in model group, positive control group and test group, respectively, at a dosage of 10 μL per nostril.
# Daily administration was continued for 10 days from D20-D30. On D23, D27 and D30 (that is, the 3rd day, 7th day and 10th day after administration), the number of times mice sneezed in each group within 15 min after administration was counted.
# Unpaired two-tailed t-test was used to analyze data for each group.
structure (smiles),measurement,setting,value
"C[C@@H]1CN([C@H]2CC[C@](C#N)(c3ccc(F)cc3)CC2)CC[C@]1(C(=O)O)c1ccccc1 [Levocabastine, Levocabastine hydrochloride]",Sneeze number compared with the model group,3rd day of administration,decreased significantly
same,Sneeze number compared with the model group,7th day of administration,no significant difference
same,Sneeze number compared with the model group,10th day of administration,no significant difference
same,"Sneeze number, individual mouse",D23 (3rd day of administration),7 and 15 and 8 and 11
same,"Sneeze number of mice, statistical data","D23, group of 4 mice, model group 22.75 ± 1.50",10.25 ± 3.59
same,"Sneeze number, individual mouse",D27 (7th day of administration),75 and 45 and 44 and 22
same,"Sneeze number of mice, statistical data","D27, group of 4 mice, model group 69.75 ± 17.08",46.50 ± 21.76
same,"Sneeze number, individual mouse",D30 (10th day of administration),124 and 108 and 46 and 110
same,"Sneeze number of mice, statistical data","D30, group of 4 mice, model group 100.25 ± 14.13",97.00 ± 34.74
